system: hypoxia-inducible endogenous VEGF expression in HeLa cells; assay: Hypoxia-inducible endogenous VEGF expression, VEGF ELISA of conditioned media (dose-response EC50); format: cell-based; settings: HeLa cells under hypoxic conditions
Description: The ability of the compounds of the invention to modulate hypoxia-inducible endogenous VEGF expression may be analyzed as follows. VEGF protein levels may be monitored by an ELISA assay (R&D Systems). Briefly, HeLa cells may be cultured for 24-48 hours under hypoxic conditions (1% O2, 5% CO2, balanced with nitrogen) in the presence or absence of a compound of the invention. The conditioned media may then be assayed by ELISA, and the concentration of VEGF calculated from the standard ELISA curve of each assay.
A dose-response analysis may be performed using the ELISA assay and conditions described above. The conditions for the dose-response ELISA are analogous to those described above. A series of, e.g., seven different concentrations may be analyzed. […] Dose-response curves may be plotted using percentage inhibition versus concentration of the compound, and EC50 and CC50 values may be generated for each compound with the maximal inhibition set as 100% and the minimal inhibition as 0%.

Structure (SMILES) | EC50
O=[N+](O)c1ccc(C2NCCc3c2[nH]c2ccc(Br)cc32)cc1 (centres unmarked) [Compound 153] | 40 to 200 nM
O=[N+](O)c1ccc(C2NCCc3c2[nH]c2ccc(Cl)cc32)cc1 (centres unmarked) [Compound 185] | 200 to 1000 nM

same assay, conditions: Homo sapiens, HeLa cells under hypoxic conditions

Structure (SMILES) | EC50
CCOC(=O)N1CCc2c([nH]c3ccc(Cl)cc23)C1c1ccc(Cl)cc1Cl (centres unmarked) [Compound 141] | 40 to 200 nM
COc1ccc(C2c3[nH]c4ccc(Cl)cc4c3CCN2C(=O)Nc2ccccc2OC)cc1 (centres unmarked) [Compound 142] | 40 to 200 nM
CCC(=O)N1CCc2c([nH]c3ccc(Cl)cc23)C1c1ccc(OC)cc1 (centres unmarked) [Compound 143] | 40 to 200 nM
CCCC(=O)N1CCc2c([nH]c3ccc(Cl)cc23)C1c1ccc(OC)c(OC)c1 (centres unmarked) [Compound 144] | 40 to 200 nM
CCOC(=O)N1CCc2c([nH]c3ccc(Cl)cc23)C1C1CCCCC1 (centres unmarked) [Compound 145] | 40 to 200 nM
CCNC(=S)N1CCc2c([nH]c3ccc(Cl)cc23)C1c1ccc(OC)cc1 (centres unmarked) [Compound 146] | 40 to 200 nM
COc1ccc(C2c3[nH]c4ccc(Cl)cc4c3CCN2C(=O)NC2CCCCC2)cc1 (centres unmarked) [Compound 147] | 40 to 200 nM
CCOC(=O)N1CCc2c([nH]c3ccc(Br)cc23)C1c1cccc(Cl)c1Cl (centres unmarked) [Compound 148] | 40 to 200 nM
S=C(NC1CCCCC1)N1CCc2c([nH]c3ccc(Br)cc23)C1c1cccc(Cl)c1 (centres unmarked) [Compound 150] | 40 to 200 nM
Clc1cccc(C2NCCc3c2[nH]c2ccc(Br)cc32)c1Cl (centres unmarked) [Compound 151] | 40 to 200 nM
CC(=O)N1CCc2c([nH]c3ccc(Br)cc23)C1c1ccccc1 (centres unmarked) [Compound 152] | 40 to 200 nM
COC(=O)N1CCc2c([nH]c3ccc(Cl)cc23)C1c1cc(F)ccc1F (centres unmarked) [Compound 154] | 40 to 200 nM
Fc1cc(F)cc(C2NCCc3c2[nH]c2ccc(Br)cc32)c1 (centres unmarked) [Compound 155] | 40 to 200 nM
Cc1ccc(C2NCCc3c2[nH]c2ccc(Br)cc32)cc1 (centres unmarked) [Compound 156] | 40 to 200 nM
Brc1ccc(C2NCCc3c2[nH]c2ccc(Br)cc32)cc1 (centres unmarked) [Compound 157] | 40 to 200 nM
CC(C)NC(=S)N1CCc2c([nH]c3ccc(Br)cc23)C1c1ccccc1 (centres unmarked) [Compound 158] | 40 to 200 nM
FC(F)(F)c1ccc(C2NCCc3c2[nH]c2ccc(Cl)cc32)cc1 (centres unmarked) [Compound 159] | 40 to 200 nM
COc1ccc(C2c3[nH]c4ccc(Cl)cc4c3CCN2C(=O)Nc2cccc(F)c2)cc1 (centres unmarked) [Compound 160] | 40 to 200 nM
Fc1ccc(C2NCCc3c2[nH]c2ccc(Br)cc32)c(F)c1 (centres unmarked) [Compound 161] | 40 to 200 nM
CC(C)c1ccc(C2NCCc3c2[nH]c2ccc(Cl)cc32)cc1 (centres unmarked) [Compound 162] | 40 to 200 nM
Fc1ccc(C2NCCc3c2[nH]c2ccc(Cl)cc32)c(F)c1 (centres unmarked) [Compound 163] | 40 to 200 nM

Structure (SMILES) | EC50
COc1ccc(C2c3[nH]c4ccc(Cl)cc4c3CCN2C(=O)Nc2cccc(OC)c2)cc1 (centres unmarked) [Compound 164] | 40 to 200 nM
CCOC(=O)N1CCc2c([nH]c3ccc(Cl)cc23)C1c1cccc(O)c1 (centres unmarked) [Compound 165] | 40 to 200 nM
C[C@H](NC(=O)OC(C)(C)C)C(=O)N1CCc2c([nH]c3ccc(Cl)cc23)C1c1ccccc1 (some centres unmarked) [Compound 166] | 40 to 200 nM
COc1ccc(C2c3[nH]c4ccc(Cl)cc4c3CCN2C(=O)Nc2ccccc2)cc1 (centres unmarked) [Compound 167] | 40 to 200 nM
Clc1ccc2[nH]c3c(c2c1)CCNC3c1cccc(Cl)c1Cl (centres unmarked) [Compound 168] | 40 to 200 nM
CCOC(=O)N1CCc2c([nH]c3ccc(Cl)cc23)C1c1ccccc1OC (centres unmarked) [Compound 169] | 40 to 200 nM
Clc1ccc2[nH]c3c(c2c1)CCNC3c1ccc(Cl)c(Cl)c1 (centres unmarked) [Compound 170] | 40 to 200 nM
Clc1ccc2[nH]c3c(c2c1)CCNC3c1ccc(Br)cc1 (centres unmarked) [Compound 171] | 200 to 1000 nM
CCNC(=O)N1CCc2c([nH]c3ccc(Cl)cc23)C1c1ccc(OC)cc1 (centres unmarked) [Compound 172] | 200 to 1000 nM
Fc1cc(F)cc(C2NCCc3c2[nH]c2ccc(Cl)cc32)c1 (centres unmarked) [Compound 173] | 200 to 1000 nM
Brc1ccc2[nH]c3c(c2c1)CCNC3c1ccccc1 (centres unmarked) [Compound 174] | 200 to 1000 nM
CCOC(=O)Oc1cccc(C2c3[nH]c4ccc(Cl)cc4c3CCN2C(=O)OCC)c1 (centres unmarked) [Compound 175] | 200 to 1000 nM
Clc1ccc2[nH]c3c(c2c1)CCN(Cc1ccccc1)C3c1ccc2c(c1)OCO2 (centres unmarked) [Compound 176] | 200 to 1000 nM
COc1ccc(C2c3[nH]c4ccc(Cl)cc4c3CCN2C(=O)NC(C)C)cc1 (centres unmarked) [Compound 177] | 200 to 1000 nM
Fc1ccc(F)c(C2NCCc3c2[nH]c2ccc(Br)cc32)c1 (centres unmarked) [Compound 178] | 200 to 1000 nM
COc1ccc(C2c3[nH]c4ccc(Cl)cc4c3CCN2C(=O)Nc2ccc(F)cc2)cc1 (centres unmarked) [Compound 179] | 200 to 1000 nM
CCOC(=O)N1CCc2c([nH]c3ccc(Cl)cc23)C1c1ccc(-n2ccnc2)cc1 (centres unmarked) [Compound 180] | 200 to 1000 nM
Clc1ccc(C2NCCc3c2[nH]c2ccc(Br)cc32)cc1 (centres unmarked) [Compound 181] | 200 to 1000 nM
COc1ccc(C2c3[nH]c4ccc(Cl)cc4c3CCN2C(=O)OC(C)Cl)cc1 (centres unmarked) [Compound 182] | 200 to 1000 nM
CCOC(=O)N1CCc2c([nH]c3ccc(Cl)cc23)C1c1ccccc1Cl (centres unmarked) [Compound 183] | 200 to 1000 nM
CC(=O)N1CCc2c([nH]c3ccc(Cl)cc23)C1c1ccc(OCc2ccccc2)cc1 (centres unmarked) [Compound 184] | 200 to 1000 nM

Structure (SMILES) | EC50
COc1ccc(NC(=O)N2CCc3c([nH]c4ccc(Cl)cc34)C2c2ccc(OC)cc2)cc1 (centres unmarked) [Compound 186] | 200 to 1000 nM
COCC(=O)N1CCc2c([nH]c3ccc(Br)cc23)C1c1ccc(C(C)C)cc1 (centres unmarked) [Compound 187] | 200 to 1000 nM
COc1ccc(C2c3[nH]c4ccc(Cl)cc4c3CCN2C(=O)NCc2ccccc2)cc1 (centres unmarked) [Compound 188] | 200 to 1000 nM
CCS(=O)(=O)N1CCc2c([nH]c3ccc(Cl)cc23)C1c1ccc(OC)cc1 (centres unmarked) [Compound 189] | 200 to 1000 nM
Clc1ccc(C2NCCc3c2[nH]c2ccc(Cl)cc32)cc1 (centres unmarked) [Compound 190] | 200 to 1000 nM
CCOC(=O)N1CCc2c([nH]c3ccc(F)cc23)C1c1ccc(OC)cc1 (centres unmarked) [Compound 191] | 200 to 1000 nM
COc1ccc(C2c3[nH]c4ccc(Cl)cc4c3CCN2C(=O)O[C@H]2C[C@@H](C)CC[C@@H]2C(C)C)cc1 (some centres unmarked) [Compound 192] | 200 to 1000 nM
Cc1ccc(C2NCCc3c2[nH]c2ccc(Cl)cc32)cc1 (centres unmarked) [Compound 193] | 200 to 1000 nM
Fc1ccc(F)c(C2NCCc3c2[nH]c2ccc(Cl)cc32)c1 (centres unmarked) [Compound 194] | 200 to 1000 nM
CCOC(=O)N1CCc2c([nH]c3ccc(F)cc23)C1c1ccc(Br)cc1 (centres unmarked) [Compound 196] | 200 to 1000 nM
Clc1ccc2[nH]c3c(c2c1)CCNC3c1ccccc1Cl (centres unmarked) [Compound 197] | 200 to 1000 nM
Clc1cccc(C2NCCc3c2[nH]c2ccc(Cl)cc32)c1 (centres unmarked) [Compound 198] | 200 to 1000 nM
CC(C)NC(=O)N1CCc2c([nH]c3ccc(Br)cc23)C1c1cccc(Cl)c1 (centres unmarked) [Compound 199] | 200 to 1000 nM
Clc1ccc2[nH]c3c(c2c1)CCNC3c1cccc(Br)c1 (centres unmarked) [Compound 200] | 200 to 1000 nM
Fc1ccc(C2NCCc3c2[nH]c2ccc(Br)cc32)cc1F (centres unmarked) [Compound 201] | 200 to 1000 nM
CC(C)NC(=S)N1CCc2c([nH]c3ccc(Br)cc23)C1c1cccc(Cl)c1 (centres unmarked) [Compound 202] | 200 to 1000 nM
Fc1cccc(C2NCCc3c2[nH]c2ccc(Cl)cc32)c1 (centres unmarked) [Compound 203] | 200 to 1000 nM
COCC(=O)N1CCc2c([nH]c3ccc(Br)cc23)C1c1ccc(OC)cc1 (centres unmarked) [Compound 204] | 200 to 1000 nM
Fc1ccccc1C1NCCc2c1[nH]c1ccc(Cl)cc21 (centres unmarked) [Compound 205] | 200 to 1000 nM
CCNC(=S)N1CCc2c([nH]c3ccc(Cl)cc23)C1c1ccc(OCc2ccccc2)cc1 (centres unmarked) [Compound 206] | 200 to 1000 nM
FC(F)(F)c1cccc(C2NCCc3c2[nH]c2ccc(Br)cc32)c1 (centres unmarked) [Compound 207] | 200 to 1000 nM

Structure (SMILES) | EC50
CCCCCC1c2[nH]c3ccc(Cl)cc3c2CCN1Cc1ccccc1 (centres unmarked) [Compound 208] | 200 to 1000 nM
CCOC(=O)N1CCc2c([nH]c3ccc(F)cc23)C1c1ccc(C)cc1 (centres unmarked) [Compound 209] | 200 to 1000 nM
COc1cccc(C2NCCc3c2[nH]c2ccc(Cl)cc32)c1 (centres unmarked) [Compound 210] | 200 to 1000 nM
CCOC(=O)N1CCc2c([nH]c3ccc(Br)cc23)C1Cc1ccccc1 (centres unmarked) [Compound 211] | 200 to 1000 nM
Clc1ccc2[nH]c3c(c2c1)CCNC3c1ccc(OCc2ccccc2)cc1 (centres unmarked) [Compound 212] | 200 to 1000 nM
Brc1cccc(C2NCCc3c2[nH]c2ccc(Br)cc32)c1 (centres unmarked) [Compound 213] | 200 to 1000 nM
COc1ccc(C2NCCc3c2[nH]c2ccc(Br)cc32)cc1 (centres unmarked) [Compound 214] | 200 to 1000 nM
Fc1ccc(C2NCCc3c2[nH]c2ccc(Cl)cc32)cc1F (centres unmarked) [Compound 215] | 200 to 1000 nM
Clc1ccc2[nH]c3c(c2c1)CCNC3c1ccccc1 (centres unmarked) [Compound 216] | 200 to 1000 nM
COc1ccc(C2c3[nH]c4ccc(Cl)cc4c3CCN2C(=O)NCCCl)cc1 (centres unmarked) [Compound 217] | 200 to 1000 nM
COCC(=O)N1CCc2c([nH]c3ccc(Br)cc23)C1c1cccc(Cl)c1 (centres unmarked) [Compound 218] | 200 to 1000 nM
N#Cc1ccc(C2NCCc3c2[nH]c2ccc(Cl)cc32)cc1 (centres unmarked) [Compound 220] | 200 to 1000 nM
CCNC(=O)N1CCc2c([nH]c3ccc(Cl)cc23)C1c1ccc(OCc2ccccc2)cc1 (centres unmarked) [Compound 221] | 200 to 1000 nM
Clc1ccc(CC2NCCc3c2[nH]c2ccc(Cl)cc32)c(Cl)c1 (centres unmarked) [Compound 222] | 200 to 1000 nM
Clc1ccc2[nH]c3c(c2c1)CCNC3c1cc(Br)cc(Br)c1 (centres unmarked) [Compound 223] | 200 to 1000 nM
CC(C)Oc1ccc(C2NCCc3c2[nH]c2ccc(Cl)cc32)cc1 (centres unmarked) [Compound 224] | 200 to 1000 nM
CS(=O)(=O)N1CCc2c([nH]c3ccc(Cl)cc23)C1c1ccc(OCc2ccccc2)cc1 (centres unmarked) [Compound 225] | 200 to 1000 nM
CCOC(=O)N1CCc2c([nH]c3ccc(Cl)cc23)C1Cc1ccccc1 (centres unmarked) [Compound 226] | 200 to 1000 nM
